This test concerns hEPO protein produced in the serum. Briefly: Delivery of human erythropoietin (hEPO) mRNA by intramuscular administration; hEPO protein in serum by ELISA. The test is classed as in vivo, Mice. The conditions noted are these: for in vivo protein production (hEPO protein) after delivery of hEPO mRNA: lipid nanoparticles comprising the compound, FIG. 1; for effectiveness in delivering hEPO mRNA compared with control cationic lipid: mice, intramuscular, lipid nanoparticles comprising the lipid, FIG. 1 and Table F. How it is done:
For the hEPO animal dosing studies, the lipid nanoparticles (LNPs) are diluted to […] in 10% trehalose. Mice are dosed intramuscularly (IM) with 0.1 μg in 30 μL volume into right gastrocnemius muscle on the leg of the mouse. Blood samples are collected 6 hours and 24 hours post injection to measure the amount of hEPO protein produced in the serum. The hEPO protein amounts are detected using an ELISA assay from commercially available kits. Lipid nanoparticle formulations described in Table D above encapsulating hEPO mRNA were prepared by Process A as described above for intramuscular (IM) administration in accordance with the above procedure.
In general terms: ELISA stands for enzyme-linked immunosorbent assay.

Results on two compounds are retold here after patent publication US20260021055A1, “Asymmetric Piperazine-Based Cationic Lipids” (TRANSLATE BIO, INC., priority 2022, published 2026).

Consider `CCCCCCCC/C=C\CCCCCCC(O)CN(CCCCSSCCCN1CC(C)N(CCOC(=O)CCCN(CC(O)CCCCCCCCCC)CC(O)CCCCCCCCCC)CC1C)CC(O)CCCCCC/C=C\CCCCCCCC` (stereo not shown) [Compound B1], for which the “in vivo protein production (hEPO protein) after delivery of hEPO mRNA” value is on record as “high levels of in vivo protein production” and the “effectiveness in delivering hEPO mRNA compared with control cationic lipid” value was “more effective in delivering hEPO mRNA than the control cationic lipid DLin-MC3-DMA”.

`CCCCCCCC/C=C\CCCCCCC(O)CN(CCCCSSCCCCN1CC(C)N(CCOC(=O)CCCN(CC(O)CCCCCCCCCC)CC(O)CCCCCCCCCC)CC1C)CC(O)CCCCCC/C=C\CCCCCCCC` (stereo not shown) [Compound C1]: the “in vivo protein production (hEPO protein) after delivery of hEPO mRNA” value was “high levels of in vivo protein production” and the “effectiveness in delivering hEPO mRNA compared with control cationic lipid” value is “more effective in delivering hEPO mRNA than the control cationic lipid DLin-MC3-DMA”.
